Structures can show the parent of a compound that is named as a salt. Peptide text beside a SMILES is read from it.
Columns and labels:
male germ cells [1] = type: in vivo; details: single IP; HN, HN-S7A, HN-C8P, HN-L12A 40 mg/Kg BW; HNG, HNG-F6A 5 mg/Kg BW; 24 hours
Procedure: For the HN analog experiments, male mice were divided into seven groups (n=4-5 per group) and received one of the following treatments and sacrificed after 24 hours: 1) vehicle (control); 2) a single intra-peritoneal (IP) injection of HN peptide [HN, 40 mg/Kg body weight (BW)]; 3) a single IP injection of CP (CP, 200 mg/Kg BW); 4) IP injection of CP and HN (CP+HN); 5) a single IP injection of each HN analog (HNG 5 mg/Kg BW, HNG-F6A 5 mg/Kg BW, HN-S7A 40 mg/Kg BW, HN-C8P 40 mg/Kg BW, or HN-L12A 40 mg/Kg BW); 6) IP injection of CP and each HN analog (CP+HNG, HNG-F6A, HN-S7A, HN-C8P, or HN-L12A); and 7) IP injection of CP+HN+HN analog (HN-S7A, HN-C8P, or HN-L12A; to assess whether the analogs has enhancing or inhibitory effect on HN).
To facilitate testicular fixation by using a whole-body perfusion technique, all animals were injected with heparin (130 IU/100 g BW, IP) 15 min before a lethal injection of sodium pentobarbital (200 mg/kg BW, IP) (Lue Y H, et al., 1999). One testis was removed and weighed after perfusion with saline. Portions of testicular parenchyma were snap frozen in liquid nitrogen, and stored at −80 C for Western blotting. The other testis was fixed by vascular perfusion with Bouin's solution, and processed with routine paraffin embedding for in situ detection of apoptosis.
Detection of apoptotic cells was performed in Bouin's'-fixed, paraffin-embedded testicular sections by the terminal deoxynucleotidyl transferase (TdT)-mediated deoxy-UTP nick end labeling (TUNEL) technique (Sinha Hikim A P, et al., 1997) using an ApopTag-peroxidase kit (Chemicon International, Inc., Temecula, Calif.). Enumeration of the Sertoli cell nuclei with distinct nucleoli and apoptotic germ cell population was quantified at stages I-IV (early stages), stages VII-VIII (middle stages) and stages XI-XII (late stages) of the seminiferous epithelial cycle using an Olympus BH-2 microscope (New Hyde Park, N.Y.). Stages were identified according to the criteria proposed by Russell et al for paraffin sections (Russell L, 1977). The rate of germ cell apoptosis (apoptotic index, AI) was expressed as the number of apoptotic germ cells per Sertoli cells (Sinha Hikim A P, et al., 1997).

[2] = tested on: germ cells in seminiferous tubules; assay: DOX-induced germ cell apoptosis in mouse seminiferous tubule cultures ex vivo (TUNEL); type: cell-based; details: 12 hours
Procedure: A total of 15 young adult (12-13 week-old) mice were used for these ex vivo studies. The animals were sacrificed with a 5% pentobarbital (200 mg/Kg) IP injection. Testes were dissected and after removing the tunica albuginea, seminiferous tubules isolated from testes were cut into small segments under a dissecting microscope and light and dark segments were separated by dissection. Ten to twelve segments were placed (2 mm in length) in each well on a six well plate with 2 ml serum free Ham F-10 culture medium (GIBCO, Life Technologies, Thermo Fisher Scientific Corp., Carlsbad, Calif.) with the following treatments: control (Con, n=10), heat (43° C., 15 minutes, used as a positive control, n=10); HN 10 μg/mL (n=9); DOX 10 mcM (Dox10, n=10); and DOX 10 mcM+Humanin 10 μg/mL (Dox10+HN, n=10). For these experiments, n represents the total number of times the treatment was repeated using different animals. After 12 hours of incubation at 34° C. the seminiferous tubules from each treatment group were used to make “squashed” seminiferous tubule samples on a slide for TUNEL (TdT-mediated dUTP nick-end labeling) assay to detect germ cell apoptosis (Erkkila, et al., 1997; Toppari & Parvinen, 1985). To quantify the rate of germ cell apoptosis under a light microscope at 400× magnification, a square grid fitted within the eyepiece provided a reference area of 62,500 μm^2. The TUNEL positive apoptotic germ cells within the frame of grid were counted in 4 segments of seminiferous tubules in each group. The incidence of germ cell apoptosis was expressed as the number of apoptotic germ cells per mm^2.
A total of 15 mice were used for ex vivo studies. The animals were sacrificed and seminiferous tubules isolated from testes were cut into small segments under a dissecting microscope to identify light (early stages I-IV and late stages XI-XII) of the seminiferous epithelium) and dark (middle stages VII-VIII) segments. […] To quantify the rate of germ cell apoptosis, the squashed segments of seminiferous tubules were examined with an American Optical Microscope (Scientific Instruments, Buffalo, N.Y.) with a 40× objective and a 10× eyepiece lens. […] The TUNEL positive apoptotic germ cells within the frame of grid were counted in 4 segments of seminiferous tubules in each group. The incidence of germ cell apoptosis was expressed as the number of apoptotic germ cells per mm^2.

testosterone = details: with or without EDS pre-treatment
male germ cells [3] = details: testicular cross sections, 24 hours; HN 40 mg/Kg or CP 200 mg/Kg single IP
Procedure: Young adult mice (12-13 weeks) were randomly divided into 4 groups with 4 or 5 mice per group and received an IP injection: control (Con) (saline), HN (40 mg/Kg BW), CP (200 mg/Kg BW), and the combination of CP+HN. These experiments were repeated four times. In the CP+HN group, mice received an injection of HN followed by an injection of CP about 15 minutes later. Twenty-four hours after injections animals were sacrificed using 5% pentobarbital (200 mg/kg BW) IP injection. Blood was collected and one testis was removed, weighed and frozen in liquid nitrogen. The mouse was next perfused with saline and then subsequently perfuse-fixed with Bouin's solution as previously described and apoptosis was assessed by TUNEL assay (Lue, et al., 2009).
For detection of apoptosis in testicular sections, the paraffin embedded testis tissue was cut into 5 micron sections and stained with the TdT-mediated dUTP nick-end labeling assay (TUNEL Apoptosis Detection Kit, Millipore, Billerica, Mass.) to detect apoptosis of germ cells in the testis (Lue, et al., 2009). Testicular sections assayed by TUNEL were examined under a light microscope and the apoptotic germ cells were blindly and manually counted. The seminiferous tubules in the testis section under the microscope were grouped as stages IX-IV (early-late stages of spermatogenesis) and V-VIII (middle stages of spermatogenesis). Germ cell apoptosis was quantified as the number of seminiferous tubules containing apoptotic spermatogonia, spermatoctyes, round spermatids and spermatozoa per 100 seminiferous tubules (Drumond, et al., 2011).

**Q.** `CC[C@H](C)[C@H](NC(=O)[C@H](CCC(=O)O)NC(=O)[C@H](CO)NC(=O)[C@@H](NC(=O)[C@H](CC(C)C)NC(=O)[C@H](CC(C)C)NC(=O)[C@H](CC(C)C)NC(=O)[C@H](CC(C)C)NC(=O)[C@H](CS)NC(=O)[C@H](C)NC(=O)[C@H](Cc1ccccc1)NC(=O)CNC(=O)[C@H](CCCNC(=N)N)NC(=O)[C@@H]1CCCN1C(=O)[C@H](C)NC(=O)[C@@H](N)CCSC)[C@@H](C)O)C(=O)N[C@@H](CC(=O)O)C(=O)N[C@@H](CC(C)C)C(=O)N1CCC[C@H]1C(=O)N[C@H](C(=O)N[C@@H](CCCCN)C(=O)N[C@@H](CCCNC(=N)N)C(=O)N[C@@H](CCCNC(=N)N)C(=O)N[C@@H](C)C(=O)O)C(C)C` [HN-S7A] (H-MAPRGFACLLLLTSEIDLPVKRRA-OH; N-terminus and C-terminus assumed) was tested. Which “spontaneous germ cell apoptosis, peptide alone” value (“spontaneous germ cell apoptosis” for short) (male germ cells [1]) did it give?
**A.** did not change

**Q.** For `CC[C@H](C)[C@H](NC(=O)[C@H](CCC(=O)O)NC(=O)[C@H](CO)NC(=O)[C@@H](NC(=O)[C@H](C)NC(=O)[C@H](CC(C)C)NC(=O)[C@H](CC(C)C)NC(=O)[C@H](CC(C)C)NC(=O)[C@H](CS)NC(=O)[C@H](CO)NC(=O)[C@H](Cc1ccccc1)NC(=O)CNC(=O)[C@H](CCCNC(=N)N)NC(=O)[C@@H]1CCCN1C(=O)[C@H](C)NC(=O)[C@@H](N)CCSC)[C@@H](C)O)C(=O)N[C@@H](CC(=O)O)C(=O)N[C@@H](CC(C)C)C(=O)N1CCC[C@H]1C(=O)N[C@H](C(=O)N[C@@H](CCCCN)C(=O)N[C@@H](CCCNC(=N)N)C(=O)N[C@@H](CCCNC(=N)N)C(=O)N[C@@H](C)C(=O)O)C(C)C` [HN-L12A] (H-MAPRGFSCLLLATSEIDLPVKRRA-OH; N-terminus and C-terminus assumed), which “spontaneous germ cell apoptosis” value (male germ cells [1]) is on record?
**A.** did not change

**Q.** How did the “spontaneous germ cell apoptosis” value (male germ cells [1]) turn out when `CC[C@H](C)[C@H](NC(=O)[C@H](CCC(=O)O)NC(=O)[C@H](CO)NC(=O)[C@@H](NC(=O)[C@H](CC(C)C)NC(=O)[C@H](CC(C)C)NC(=O)[C@H](CC(C)C)NC(=O)[C@H](CC(C)C)NC(=O)[C@@H]1CCCN1C(=O)[C@H](CO)NC(=O)[C@H](Cc1ccccc1)NC(=O)CNC(=O)[C@H](CCCNC(=N)N)NC(=O)[C@@H]1CCCN1C(=O)[C@H](C)NC(=O)[C@@H](N)CCSC)[C@@H](C)O)C(=O)N[C@@H](CC(=O)O)C(=O)N[C@@H](CC(C)C)C(=O)N1CCC[C@H]1C(=O)N[C@H](C(=O)N[C@@H](CCCCN)C(=O)N[C@@H](CCCNC(=N)N)C(=O)N[C@@H](CCCNC(=N)N)C(=O)N[C@@H](C)C(=O)O)C(C)C` [HN-C8P] (H-MAPRGFSPLLLLTSEIDLPVKRRA-OH; N-terminus and C-terminus assumed) was run?
**A.** did not change

**Q.** How did the “germ cell apoptosis compared with control” value ([2]; HN 10 μg/mL alone or DOX 10 μM (high dose) alone) turn out when `CC[C@H](C)[C@H](NC(=O)[C@H](CCC(=O)O)NC(=O)[C@H](CO)NC(=O)[C@@H](NC(=O)[C@H](CC(C)C)NC(=O)[C@H](CC(C)C)NC(=O)[C@H](CC(C)C)NC(=O)[C@H](CC(C)C)NC(=O)[C@H](CS)NC(=O)[C@H](CO)NC(=O)[C@H](Cc1ccccc1)NC(=O)CNC(=O)[C@H](CCCNC(=N)N)NC(=O)[C@@H]1CCCN1C(=O)[C@H](C)NC(=O)[C@@H](N)CCSC)[C@@H](C)O)C(=O)N[C@@H](CC(=O)O)C(=O)N[C@@H](CC(C)C)C(=O)N1CCC[C@H]1C(=O)N[C@H](C(=O)N[C@@H](CCCCN)C(=O)N[C@@H](CCCNC(=N)N)C(=O)N[C@@H](CCCNC(=N)N)C(=O)N[C@@H](C)C(=O)O)C(C)C` [HN] was run?
**A.** no significant effect

**Q.** What about the “spontaneous germ cell apoptosis” value (male germ cells [1]) of the same compound?
**A.** did not change

**Q.** And the intratesticular testosterone levels (testosterone)?
**A.** no significant effects

**Q.** And the serum testosterone levels (testosterone)?
**A.** no significant effects

**Q.** What about the “germ cell apoptosis compared to control” value (male germ cells [3]) of the same compound?
**A.** no significant effect

**Q.** How did the “spontaneous germ cell apoptosis” value (male germ cells [1]) turn out when `CC[C@H](C)[C@H](NC(=O)[C@H](CCC(=O)O)NC(=O)CNC(=O)[C@@H](NC(=O)[C@H](CC(C)C)NC(=O)[C@H](CC(C)C)NC(=O)[C@H](CC(C)C)NC(=O)[C@H](CC(C)C)NC(=O)[C@H](CS)NC(=O)[C@H](CO)NC(=O)[C@H](C)NC(=O)CNC(=O)[C@H](CCCNC(=N)N)NC(=O)[C@@H]1CCCN1C(=O)[C@H](C)NC(=O)[C@@H](N)CCSC)[C@@H](C)O)C(=O)N[C@@H](CC(=O)O)C(=O)N[C@@H](CC(C)C)C(=O)N1CCC[C@H]1C(=O)N[C@H](C(=O)N[C@@H](CCCCN)C(=O)N[C@@H](CCCNC(=N)N)C(=O)N[C@@H](CCCNC(=N)N)C(=O)N[C@@H](C)C(=O)O)C(C)C` [HNG-F6A] (H-MAPRGASCLLLLTGEIDLPVKRRA-OH; N-terminus and C-terminus assumed) was run?
**A.** did not change

**Q.** What does the source list for `COc1cccc2c1C(=O)c1c(O)c3c(c(O)c1C2=O)C[C@@](O)(C(=O)CO)C[C@@H]3O[C@H]1C[C@H](N)[C@H](O)[C@H](C)O1` [DOX, doxorubicin hydrochloride]?
**A.** germ cell apoptosis compared with control ([2]; HN 10 μg/mL alone or DOX 10 μM (high dose) alone, hydrochloride): significantly higher number of apoptotic germ cells; germ cell apoptosis compared with control ([2]; HN 10 μg/mL alone or DOX 10 μM (high dose) alone, listed as doxorubicin, hydrochloride): significantly increased apoptosis; germ cell apoptosis compared with control ([2]; doxorubicin 1 μM (low dose)): increased apoptosis but did not reach statistical difference

From US9937227B2, “Humanin, analogs and cancer treatment methods and uses thereof” (LOS ANGELES BIOMEDICAL RESEARCH INSTITUTE AT HARBOR-UCLA …, priority 2014, dated 2018)
